# Results as given in patent publication US20240269337A1, “METHOD AND SYSTEM FOR COATING FILTER MEDIA” (MOLECULAR PLASMA GROUP SA, priority 2021, published 2024).
# How the values were obtained:
# MS2 virus = assay: Virucidal testing with MS2 droplets on coated filter media 2.2 (Example 3); assay type: cell-based; details: 2 hours incubation
# Protocol: Filter media 2.2 were coated according to the process parameters of Table 9 using the same PlasmaLine® equipment. For each coating process, 2 samples were coated with the outer waved layer exposed to the plasma source, and 2 samples were coated with the outer backing layer surface exposed.
# Two precursors were used: an aqueous solution comprising 40% by weight of citric acid, and a solution of 15% by weight of chlorocresol in ethanol.
# The anti-viral properties were tested by application of a fixed number of water droplets containing the MS2 virus on the surface of the samples. The droplets were applied to the surface that was exposed to the plasma source during the atmospheric pressure plasma coating process. After an incubation of 2 hours, the samples were immerged in a recuperation solution to extract the virus from the samples. The recuperation solution was placed in a petri dish wherein the E. coli bacteria grew, and the number of viral zones (zones comprising death bacteria) are counted. A lower number of viral zones indicates a larger neutralisation of the virus by the plasma coating.
# The Virucide result (log value) gives the log value of the number of living viruses found in the recuperation solution.
# [1] = system: Staphylococcus aureus (gram-positive); assay: Quantitative antibacterial activity test of treated materials (OECD / ISO 22197/20743), Gram +; assay type: cell-based, S. aureus ATCC6538P
# [2] = system: Escherichia coli (gram-negative); assay: Quantitative antibacterial activity test of treated materials (OECD / ISO 22197/20743), Gram −; assay type: cell-based
# Phi-6 bacteriophage = assay: Phi-6 virucidal test (modified ISO 10705-1:1995); assay type: cell-based; details: 20 wt% citric acid precursor, Outer wave sample, 2-hour contact
# MS2 = MS2 test after accelerated ageing (ASTM F1980-16), Example 4; assay type: cell-based
# From the text: Same filter media 2.2 as in example 3 was used. The filter media was placed with the outer backing layer on a support platform and the outer wave layer exposed to the coating precursor-comprising plasma discharge (or the plasma source) during the atmospheric pressure plasma coating process.
# Two different precursors were used: an aqueous solution comprising 50% by weight of citric acid (CAS 77-92-9), and an aqueous solution comprising 25% by weight n-alkyl(C12-16)-n,n-dimethyl-n-benzylammonium chloride (BTC50E; CAS 68424-85-1) (1:1 w/w dilution in water).
# Filter media samples were coated with each coating by passing 3 or 6 times through the plasma discharge area. The virucidal performance was tested by the MS2 test as explained above. An accelerated ageing test was performed according to ASTM F1980-16. […] An ageing test of 3 days at 55° C. and 75% RH represents 1 month in real life conditions. The results of the virucidal performance after ageing gives an idea of the durability of the coating over time.
# [3] = pH test (change in pH value before and after coating, penetration depth); assay type: physicochemical; details: Outer wave sample
# Protocol: The penetration depth was measured by measuring the change in pH value before and after coating on samples of the outer wave layer 51. […] Presence of citric acid was also detected in the intermediate layer 52.
# [4] = exposed side Backing layer, 5 passes
# [5] = exposed side Backing layer, 10 passes
# [6] = exposed side waved layer, 5 passes
# [7] = exposed side waved layer, 10 passes
# [8] = exposed side waved layer, 20 passes
# [9] = exposed side Backing layer, 20 passes
# [10] = 3 passes, 0 days oven (0 months real life)
# [11] = 3 passes, 9 days oven (3 months real life)
# [12] = 3 passes, 19 days oven (6 months real life)
# [13] = 3 passes, 27 days oven (9 months real life)
# [14] = 3 passes, 36 days oven (12 months real life)
# [15] = 6 passes, 0 days oven (0 months real life)
# [16] = 6 passes, 6 days oven 55° C. 75% RH (2 months real life)
# [17] = 6 passes, 9 days oven (3 months real life)
# [18] = 6 passes, 19 days oven (6 months real life)
# [19] = 6 passes, 27 days oven (9 months real life)
# [20] = 6 passes, 36 days oven (12 months real life)
# [21] = 3 passes, 3 days oven 55° C. 75% RH (1 month real life)
# [22] = 3 passes, 6 days oven 55° C. 75% RH (2 months real life)
# [23] = 6 passes, 3 days oven 55° C. 75% RH (1 month real life)
molecule,measurement,setting,value
"Cc1cc(O)ccc1Cl [Chlorocresol, reference compound]",Virus neutralized (%),MS2 virus; [4],68.4%
same,Viruside results (log red),MS2 virus; [4],0.5 log red
same,Virus neutralized (%),MS2 virus; [5],98.0%
same,Viruside results (log red),MS2 virus; [5],1.7 log red
same,Virus neutralized (%),MS2 virus; [6],36.9%
same,Viruside results (log red),MS2 virus; [6],0.2 log red
same,Virus neutralized (%),MS2 virus; [7],74.9%
same,Viruside results (log red),MS2 virus; [7],0.6 log red
same,Virus neutralized (%),MS2 virus; [8],84.2%
same,Viruside results (log red),MS2 virus; [8],0.8 log red
"CCCCCCCCCCCCCCCCCC[N+](C)(C)CCC[Si](OC)(OC)OC.[Cl-] [SiQAM, Dimethyloctadecyl[3-(trimethoxysilyl)propyl] ammonium chloride]",% Gram + bacteria reduced,[1]; PPNW substrate 25 g/m^2,>99.994%
same,Gram + log reduction,[1]; PPNW substrate 25 g/m^2,>4.2 log
same,% Gram + bacteria reduced,[1]; Tyvek substrate,>99.95%
same,Gram + log reduction,[1]; Tyvek substrate,>3.3 log
same,% Gram − bacteria reduced,[2]; PPNW substrate 25 g/m^2,>99.9996%
same,Gram − log reduction,[2]; PPNW substrate 25 g/m^2,>5.4 log
same,% Gram − bacteria reduced,[2]; Tyvek substrate,>98.7%
same,Gram − log reduction,[2]; Tyvek substrate,>1.9 log
Benzalkonium chloride [reference compound],% Gram + bacteria reduced,[1]; PPNW substrate 25 g/m^2,>99.994%
same,Gram + log reduction,[1]; PPNW substrate 25 g/m^2,>4.2 log
same,% Gram + bacteria reduced,[1]; Tyvek substrate,>99.5%
same,Gram + log reduction,[1]; Tyvek substrate,>3.3 log
same,% Gram − bacteria reduced,[2]; PPNW substrate 25 g/m^2,99.9996%
same,Gram − log reduction,[2]; PPNW substrate 25 g/m^2,5.4 log
same,% Gram − bacteria reduced,[2]; Tyvek substrate,98.7%
same,Gram − log reduction,[2]; Tyvek substrate,1.9 log
"PVP-12 Poly(vinylpyrrolidone)- Iodine complex [PVP-I2, reference compound]",% Gram + bacteria reduced,[1]; PPNW substrate 25 g/m^2,>99.994%
same,Gram + log reduction,[1]; PPNW substrate 25 g/m^2,>4.2 log
same,% Gram − bacteria reduced,[2]; PPNW substrate 25 g/m^2,>99.9996%
same,Gram − log reduction,[2]; PPNW substrate 25 g/m^2,>5.4 log
"C=C(C)C(=O)OCCN(C)C [DIMAEMA, 2-(Dimethylamino) ethyl methacrylate]",% Gram + bacteria reduced,[1]; PPNW substrate 25 g/m^2,>99.994%
same,Gram + log reduction,[1]; PPNW substrate 25 g/m^2,>4.2 log
same,% Gram + bacteria reduced,[1]; Tyvek substrate,>99.95%
same,Gram + log reduction,[1]; Tyvek substrate,>3.3 log
same,% Gram − bacteria reduced,[2]; PPNW substrate 25 g/m^2,>99.9996%
same,Gram − log reduction,[2]; PPNW substrate 25 g/m^2,>5.4 log
same,% Gram − bacteria reduced,[2]; Tyvek substrate,20.6%
same,Gram − log reduction,[2]; Tyvek substrate,0.1 log
Citric Acid,Avg. Phi-6 (log red),Phi-6 bacteriophage; 6 passes,>2.2 log red
same,Phi-6 neutralized (%),Phi-6 bacteriophage; 6 passes,>99.37%
same,Avg. Phi-6 (log red),Phi-6 bacteriophage; 10 passes,>2.2 log red
same,Phi-6 neutralized (%),Phi-6 bacteriophage; 10 passes,>99.37%
same,Avg. Phi-6 (log red),Phi-6 bacteriophage; 20 passes,>2.2 log red
same,Phi-6 neutralized (%),Phi-6 bacteriophage; 20 passes,>99.37%
same,% Gram + bacteria reduced,[1]; PPNW substrate 25 g/m^2,>99.995%
same,Gram + log reduction,[1]; PPNW substrate 25 g/m^2,>4.3 log
same,% Gram + bacteria reduced,[1]; Tyvek substrate,>99.98%
same,Gram + log reduction,[1]; Tyvek substrate,>3.8 log
same,Virus neutralized (%),MS2 virus; [4],93.7%
same,Viruside results (log red),MS2 virus; [4],1.2 log red
same,Virus neutralized (%),MS2 virus; [5],96.0%
same,Viruside results (log red),MS2 virus; [5],1.4 log red
same,Virus neutralized (%),MS2 virus; [9],99.8%
same,Viruside results (log red),MS2 virus; [9],2.7 log red
same,Virus neutralized (%),MS2 virus; [6],80.0%
same,Viruside results (log red),MS2 virus; [6],0.7 log red
same,Virus neutralized (%),MS2 virus; [7],93.7%
same,Viruside results (log red),MS2 virus; [7],1.2 log red
same,Virus neutralized (%),MS2 virus; [8],98.7%
same,Viruside results (log red),MS2 virus; [8],1.9 log red
same,% Gram − bacteria reduced,[2]; PPNW substrate 25 g/m^2,>99.999%
same,Gram − log reduction,[2]; PPNW substrate 25 g/m^2,>5.0 log
same,% Gram − bacteria reduced,[2]; Tyvek substrate,97.5%
same,Gram − log reduction,[2]; Tyvek substrate,1.6 log
same,Virus neutralized (%),MS2; [10],99.86%
same,Viruside results (log red),MS2; [10],2.86 log red
same,Virus neutralized (%),MS2; [11],97.76%
same,Virus neutralized (%),MS2; [12],97.38%
same,Virus neutralized (%),MS2; [13],99.00%
same,Virus neutralized (%),MS2; [14],97.91%
same,Virus neutralized (%),MS2; [15],99.78%
same,Viruside results (log red),MS2; [15],2.65 log red
same,Virus neutralized (%),MS2; [16],98.09%
same,Viruside results (log red),MS2; [16],1.72 log red
same,Virus neutralized (%),MS2; [17],96.45%
same,Virus neutralized (%),MS2; [18],95.91%
same,Virus neutralized (%),MS2; [19],97.61%
same,Virus neutralized (%),MS2; [20],93.97%
same,pH test,[3]; 6 passes,1.66
same,pH test,[3]; 10 passes,1.72
same,pH test,[3]; 20 passes,1.78
"n-alkyl(C12-16)-n,n-dimethyl-n-benzylammonium chloride [BTC50E]",Virus neutralized (%),MS2; [10],99.57%
same,Viruside results (log red),MS2; [10],2.37 log red
same,Virus neutralized (%),MS2; [21],99.96%
same,Viruside results (log red),MS2; [21],3.38 log red
same,Virus neutralized (%),MS2; [22],99.74%
same,Viruside results (log red),MS2; [22],2.59 log red
same,Virus neutralized (%),MS2; [11],99.35%
same,Virus neutralized (%),MS2; [12],99.86%
same,Virus neutralized (%),MS2; [13],99.89%
same,Virus neutralized (%),MS2; [14],99.98%
same,Virus neutralized (%),MS2; [15],99.83%
same,Viruside results (log red),MS2; [15],2.78 log red
same,Virus neutralized (%),MS2; [23],99.82%
same,Viruside results (log red),MS2; [23],2.75 log red
same,Virus neutralized (%),MS2; [16],99.83%
same,Viruside results (log red),MS2; [16],2.78 log red
same,Virus neutralized (%),MS2; [17],98.88%
same,Virus neutralized (%),MS2; [18],99.83%
same,Virus neutralized (%),MS2; [19],99.70%
same,Virus neutralized (%),MS2; [20],98.59%
